Measured values published in patent US20250388597A1, “BIFUNCTIONAL PHOTOCROSSLINKING PROBES FOR COVALENT CAPTURE OF PROTEIN-NUCLEIC ACID COMPLEXES IN CELLS” (UNIVERSITY OF SOUTHERN CALIFORNIA, priority 2022, published 2025).

Legend:
[1] = system: MEF2A/DNA complexes in GM12878 cells; assay: Capture of MEF2A/DNA complexes in GM12878 nuclei, western blot; assay type: cell-based; conditions: probe 10 μM + UV365 10 min
Procedure: FIG. 10A depicts Western blot analysis of presence of complexing of MEF2A with DNA in GM12878 cells treated with UV365 and SPB-PEG3-AAD. For each lane, one million of GM12878 cells were used. The nuclei of the cells were extracted and resuspended in 500 μl PBS, treated with various combination of SPB-PEG3-AAD (10 μM) and/or UV365 (10 min, 30 W, LED, sample distance 3 cm, cooling at 4-degree C.). The samples were then sonicated using covaries (1 min) followed by limited MNase digestion (10 min, 37-degree C.). The lysed and partially digested samples were then mixed with SDS loading dye (2% SDS, boil for 10 min) and run on SDS gel for western blot analyses of MEF2A using Anti-MEF2 antibody (B-4) (SCBT, cat #sc-17785).
We tested the capture of MEF2A/DNA complexes in the GM12878 cell line, a Tier 1 ENCODE cell line with rich genomics data.

[2] = target: T1, FOXP3 in Hela cells (Homo sapiens, UniProt Q9BZS1); assay: Capture of AVI-TEV-FLAG tagged FOXP3 complexes in transfected Hela cells, western blot; assay type: cell-based
T1 construct: AVI tag; TEV site; expressed in transfected cells; host or cells: Hela
T1 sequence (Q9BZS1 1-431): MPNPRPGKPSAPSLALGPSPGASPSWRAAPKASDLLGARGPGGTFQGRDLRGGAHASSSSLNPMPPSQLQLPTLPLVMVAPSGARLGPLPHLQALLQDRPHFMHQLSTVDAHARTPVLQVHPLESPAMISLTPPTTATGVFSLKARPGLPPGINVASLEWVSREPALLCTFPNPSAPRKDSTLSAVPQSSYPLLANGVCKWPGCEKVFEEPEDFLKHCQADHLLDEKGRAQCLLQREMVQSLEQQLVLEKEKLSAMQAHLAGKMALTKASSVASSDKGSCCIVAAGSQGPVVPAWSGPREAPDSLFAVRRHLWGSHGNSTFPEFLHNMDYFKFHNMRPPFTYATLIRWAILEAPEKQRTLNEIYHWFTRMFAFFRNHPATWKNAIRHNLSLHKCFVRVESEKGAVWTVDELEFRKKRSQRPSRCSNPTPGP
Procedure: FIG. 10B depicts Western blot analysis of Hela cells transfected with AVI-TEV-FLAG tagged FOXP3. For each lane, approximately one million of cells were used. Lane 1 was fixed with 1% formaldehyde (FA) for 10 min according to standard protocol. Lane 2, untreated control, Lane 3, UV only, lane 4 and lane 6 were treated with SPB-AAD of 1 or 10 μM, respectively but without UV illumination, lane 5 and lane 7 were treated with SPB-AAD of 1 or 10 μM, respectively and illuminated by UV365 (10 min, 30 W, LED, sample distance 3 cm, cooling at 4 degree C.). The cells were lysed using RIPA buffer and further digested by MNase. The sample mixtures were mixed with SDS loading dye (2% SDS, boil for 10 min) and run on SDS gel for western blot analyses of using Anti-FLAG antibody.
We have performed similar experiments with a different system, Hela cells transfected with AVI-TEV-FLAG tagged FOXP3.

SMILES: C#CCCC1(CCNC(=O)CCOCCOCCOCCC(=O)NCCNC(=O)CCCOc2c3occc3cc3ccc(=O)oc23)N=N1 [SPB-PEG3-AAD]
- capture of MEF2A complexes [1]: could capture MEF2 complexes in the nucleus

SMILES: C#CCCC1(CCNC(=O)CCCOc2c3occc3cc3ccc(=O)oc23)N=N1 [SPB-AAD, N-(2-(3-(but-3-yn-1-yl)-3H-diazirin-3-yl)ethyl)-4-((7-oxo-7H-furo[3,2-g]chromen-9-yl)oxy)butanamide]
- dependence of higher molecular weight FOXP3 complex formation on probe concentration ([2]; 10 μM (lane 7) vs 1 μM (lane 5)): dosage dependent
- capture of higher molecular weight FOXP3 complexes ([2]; probe 1 or 10 μM + UV365 10 min (lanes 5 and 7)): can capture higher molecular weight FOXP3 complexes
